Data: PubChem BioAssay AID2060908 (Molecular Pharmacology Branch, DTP, NCI, 2025)

Tested on: 186277-243-T-J2-PDC complex spheroids, viability
Assay: Anticancer human tumor 186277-243-T-J2-PDC patient-derived colon adenocarcinoma cell line growth inhibition [RAS]
Details: for IC50: curve of first compound; for viability, T/C: stronger effect = lower value
From the text: RAS pathway inhibitors in Combinations in Complex Spheroids
A high-throughput screen of multi-cell type tumor spheroids was designed to identify active combinations of RAS pathway inhibitors and targeted small molecules. Complex spheroids include a stromal component modeled by human endothelial cells (HUVEC) and fibroblasts modeled by human mesenchymal stem cells (MSCs). The concentration ranges selected for each drug and investigational agent were based upon clinically achievable concentrations if the clinical Cmax of the agent was known.
Compounds. The drugs and investigational agents: abemaciclib (NSC768073), cobimetinib (NSC768068), divarasib (GDC6063, NSC841802), docetaxel (NSC628503), GDC-1971 (RLY-1971, NSC841576), gemcitabine (NSC613327), inavolisib (NSC800729), ipatasertib (NSC767898), KB-0742 (NSC834161), MRTX-1133 (NSC836407), osimertinib (NSC779217), RMC-4630 (NSC839698), RMC-6236 (NSC851965), RMC-6291 (NSC852671), Ro-3306 (NSC812927), sapanisertib (NSC764658), SN-38 (NSC673596), staurosporine (NSC755774), SY5609 (NSC837396), and tovorafenib (DAY101, NSC766906), were obtained from the National Cancer Institute (NCI) Developmental Therapeutics Program Chemical Repository. The FDA-approved anticancer drug set is available from the NCI Developmental Therapeutics Program. […] The stock solutions were prepared in dimethyl sulfoxide (DMSO, Sigma-Aldrich, St. Louis, MO, cat. D2650) at 800-fold the tested concentration and stored at -70 degrees C prior to their use. All drugs and investigational agents were tested over a range starting from a high concentration at or near the clinical Cmax and decreasing in half-log increments. If the clinical Cmax for an agent had not been determined, the highest concentration tested was 10 microM.
Cell Culture. All cells were maintained in an incubator at 37 degrees C and 5% CO2 with 95% humidity. The PDC lines were cultured according to standard operating procedures established by the NCI PDMR. All PDCs were thawed and cultured in Matrigel-coated flasks prepared with a working solution of 1X Ham's F-12 nutrient mix, without supplementation (Invitrogen, Waltham, MA, cat. 11765054), 100 U/mL penicillin-streptomycin (Invitrogen, cat. 15140122), and 2.5% Matrigel (Corning Inc., Corning, NY, cat. 354248) for the first three passages. The 362531-283-R-J2-PDC and 782815-120-R-J1-PDC lines were cultured in 6C/Colon 1B media, which includes advanced DMEM/F-12 (Thermo Fisher Scientific, cat. 12634028), 10 mM HEPES (Thermo Fisher Scientific, cat. 15630080), 1X GlutaMAX supplement (Thermo Fisher Scientific, cat. 35050061), 0.1 mg/mL primocin (InvivoGen, San Diego, CA, cat. ant-pm-2), 10% defined fetal bovine serum, heat inactivated (HyClone Laboratories Inc., Logan, UT, cat. SH30070.03HI), 50% L-WRN conditioned media (ATCC, cat. CRL-3276), 1.25 mM N-Acetyl-L-cysteine (Sigma-Aldrich, cat. A9165), 10 mM nicotinamide (Sigma-Aldrich, cat. N0636), 1X B-27 supplement (Thermo Fisher Scientific, cat. 17504044), 1X N-2 supplement (Thermo Fisher Scientific, cat. 17502048), 50 ng/mL human EGF (Thermo Fisher Scientific, cat. PHG0311), and 10 microM Y-27632 dihydrochloride (Tocris Bioscience, cat. 1254). The K12877-001-R-J1-PDC line was cultured in 6I media, which includes all 6C/Colon 1B media plus 10 ng/mL human FGF-10 (PeproTech, cat. 100-26), 1 ng/mL human FGF-2 (PeproTech, cat. 100-18B), 1 µM prostaglandin E2 (Tocris Bioscience, cat. 2296), […] hydrocortisone (Sigma-Aldrich, cat. H4001), and […] bovine insulin (Sigma-Aldrich, cat. I6634). The K86415-001-R-J1-PDC line was cultured in 6D media, which includes all 6C/Colon 1B media components minus the L-WRN conditioned media. The 485176-168-R4-J1-PDC was cultured in PANC media, which includes all 6C/Colon 1B media plus 100 ng/mL human FGF-10 (PeproTech, cat. 100-26), 500 nM SB-431542 (Selleckchem, cat. S1067), and 10 nM gastrin (Tocris Bioscience, cat. 3006). […]
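Also: spheroids exposed to compounds for 7 days before viability read.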

`O=C(c1ccc(F)c(F)c1Nc1ccc(I)cc1F)N1CC(O)([C@@H]2CCCCN2)C1` + C#Cc1c(F)ccc2cc(O)cc(-c3ncc4c(N5CC6CCC(C5)N6)nc(OCC56CCCN5CC(F)C6)nc4c3F)c12 was tested, and the IC50 (second compound 0.0316 µM) was 20.9 nM, the IC50 (second compound 0.1 µM) was 3.25 nM and the IC50 (second compound 0.316 µM) was under 3.16 nM. For the same molecule, the IC50 (second compound 1 µM) was under 3.16 nM, the IC50 (second compound 3.16 µM) was under 3.16 nM and the IC50 (second compound 10 µM) was under 3.16 nM. It also gave a viability, T/C (second compound 0.0316 µM, first compound 0.00316 µM) of 72.4%, a viability, T/C (second compound 0.0316 µM, first compound 0.01 µM) of 56.3% and a viability, T/C (second compound 0.0316 µM, first compound 0.0316 µM) of 47.1%. For the same molecule, the viability, T/C (second compound 0.0316 µM, first compound 0.1 µM) was 15.4%, the viability, T/C (second compound 0.0316 µM, first compound 0.316 µM) was 5.69% and the viability, T/C (second compound 0.0316 µM, first compound 1 µM) was 6.25%. For the same molecule, the viability, T/C (second compound 0.1 µM, first compound 0.00316 µM) was 50%, the viability, T/C (second compound 0.1 µM, first compound 0.01 µM) was 40.8% and the viability, T/C (second compound 0.1 µM, first compound 0.0316 µM) was 20%. For the same molecule, the viability, T/C (second compound 0.1 µM, first compound 0.1 µM) was 9.26%, the viability, T/C (second compound 0.1 µM, first compound 0.316 µM) was 6.29% and the viability, T/C (second compound 0.1 µM, first compound 1 µM) was 3.94%. The viability, T/C (second compound 0.316 µM, first compound 0.00316 µM) was 18.9%, the viability, T/C (second compound 0.316 µM, first compound 0.01 µM) was 17.5% and the viability, T/C (second compound 0.316 µM, first compound 0.0316 µM) was 10.5%. It also gave a viability, T/C (second compound 0.316 µM, first compound 0.1 µM) of 9.19%, a viability, T/C (second compound 0.316 µM, first compound 0.316 µM) of 4.54% and a viability, T/C (second compound 0.316 µM, first compound 1 µM) of 3.72%. For the same molecule, the viability, T/C (second compound 1 µM, first compound 0.00316 µM) was 12.6%, the viability, T/C (second compound 1 µM, first compound 0.01 µM) was 9.81% and the viability, T/C (second compound 1 µM, first compound 0.0316 µM) was 8.46%. It also gave a viability, T/C (second compound 1 µM, first compound 0.1 µM) of 6.3%, a viability, T/C (second compound 1 µM, first compound 0.316 µM) of 4.16% and a viability, T/C (second compound 1 µM, first compound 1 µM) of 3.53%. It also gave a viability, T/C (second compound 3.16 µM, first compound 0.00316 µM) of 9%, a viability, T/C (second compound 3.16 µM, first compound 0.01 µM) of 9.32% and a viability, T/C (second compound 3.16 µM, first compound 0.0316 µM) of 7.86%. For the same molecule, the viability, T/C (second compound 3.16 µM, first compound 0.1 µM) was 5.98%, the viability, T/C (second compound 3.16 µM, first compound 0.316 µM) was 3.91% and the viability, T/C (second compound 3.16 µM, first compound 1 µM) was 3.32%. It also gave a viability, T/C (second compound 10 µM, first compound 0.00316 µM) of 6.85%, a viability, T/C (second compound 10 µM, first compound 0.01 µM) of 7.33% and a viability, T/C (second compound 10 µM, first compound 0.0316 µM) of 5.34%. It also gave a viability, T/C (second compound 10 µM, first compound 0.1 µM) of 3.85%, a viability, T/C (second compound 10 µM, first compound 0.316 µM) of 2.37% and a viability, T/C (second compound 10 µM, first compound 1 µM) of 1.61%.
